# Legend:
# Test in all cases: relative viability (nuclei count vs DMSO), 5 days (fraction); higher = more cells survive
# [1] = test system: LK-2
# Outline: (§1)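 One day after seeding in 1536-well plates, lung cancer cell lines were dosed by pin tool. Dosing was either single-drug or a fixed anchor-drug dose plus five library-drug doses (not always all listed) in √10 steps. After 5 days, nuclei were stained in one fix-and-stain step and counted on 4× images, and relative viability is the nuclei count of treated wells over that of vehicle wells, given as the median of duplicate plates.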
# [2] = test system: BEN
# Outline: as §1
# [3] = test system: HCC-366
# Outline: as §1
# [4] = test system: NCI-H1650
# Outline: as §1
# [5] = test system: NCI-H2170
# Outline: as §1
# [6] = test system: 201T
# Outline: as §1
# [7] = test system: NCI-H2009
# Outline: as §1
# [8] = test system: NCI-H838
# Outline: as §1
# [9] = test system: EKVX
# Outline: as §1
# [10] = test system: COR-L 105
# Outline: as §1
# [11] = test system: SW 900
# Outline: as §1
# [12] = test system: COR-L23
# Outline: as §1
# [13] = test system: NCI-H1666
# Outline: as §1
# [14] = test system: NCI-H2023
# Outline: as §1
# [15] = test system: NCI-H727
# Outline: as §1
# [16] = test system: NCI-H661
# Outline: as §1
# [17] = test system: NCI-H441
# Outline: as §1
# [18] = test system: LU99A
# Outline: as §1
# [19] = test system: ABC-1
# Outline: as §1
# [20] = test system: HARA
# Outline: as §1
# [21] = test system: PC-14
# Outline: as §1
# [22] = test system: NCI-H3122
# Outline: as §1
# [23] = test system: NCI-H1437
# Outline: as §1
smiles,measurement,setting,value
C[C@@H]1CN(CC(=O)Nc2ccc3c(c2)Cc2cccc(-c4cc(=O)cc(N5CCOCC5)o4)c2S3)C[C@H](C)O1 + Nc1ncn([C@H]2C[C@H](O)[C@@H](CO)O2)c(=O)n1 [Decitabine] (partner 2 µM),relative viability,[1]; first compound 0.04 µM,0.258
same,relative viability,[1]; first compound 0.1265 µM,0.279
same,relative viability,[1]; first compound 0.4 µM,0.198
same,relative viability,[1]; first compound 4 µM,0.257
same,relative viability,[2]; first compound 0.04 µM,0.702
same,relative viability,[2]; first compound 0.1265 µM,0.696
same,relative viability,[2]; first compound 0.4 µM,0.81
same,relative viability,[2]; first compound 4 µM,0.735
same,relative viability,[3]; first compound 0.04 µM,0.347
same,relative viability,[3]; first compound 0.1265 µM,0.348
same,relative viability,[3]; first compound 0.4 µM,0.326
same,relative viability,[3]; first compound 4 µM,0.326
same,relative viability,[4]; first compound 0.04 µM,0.492
same,relative viability,[4]; first compound 0.1265 µM,0.44
same,relative viability,[4]; first compound 0.4 µM,0.488
same,relative viability,[4]; first compound 4 µM,0.499
same,relative viability,[5]; first compound 0.04 µM,0.492
same,relative viability,[5]; first compound 0.1265 µM,0.459
same,relative viability,[5]; first compound 0.4 µM,0.508
same,relative viability,[5]; first compound 4 µM,0.464
same,relative viability,[6]; first compound 0.04 µM,0.816
same,relative viability,[6]; first compound 0.1265 µM,0.818
same,relative viability,[6]; first compound 0.4 µM,0.84
same,relative viability,[6]; first compound 4 µM,0.791
same,relative viability,[7]; first compound 0.04 µM,0.31
same,relative viability,[7]; first compound 0.1265 µM,0.363
same,relative viability,[7]; first compound 0.4 µM,0.383
same,relative viability,[7]; first compound 4 µM,0.34
same,relative viability,[8]; first compound 0.04 µM,0.46
same,relative viability,[8]; first compound 0.1265 µM,0.472
same,relative viability,[8]; first compound 0.4 µM,0.518
same,relative viability,[8]; first compound 4 µM,0.492
same,relative viability,[9]; first compound 0.04 µM,0.302
same,relative viability,[9]; first compound 0.1265 µM,0.368
same,relative viability,[9]; first compound 0.4 µM,0.303
same,relative viability,[9]; first compound 4 µM,0.317
same,relative viability,[10]; first compound 0.04 µM,0.644
same,relative viability,[10]; first compound 0.1265 µM,0.661
same,relative viability,[10]; first compound 0.4 µM,0.723
same,relative viability,[10]; first compound 4 µM,0.654
same,relative viability,[11]; first compound 0.04 µM,0.453
same,relative viability,[11]; first compound 0.1265 µM,0.427
same,relative viability,[11]; first compound 0.4 µM,0.515
same,relative viability,[11]; first compound 4 µM,0.43
same,relative viability,[12]; first compound 0.04 µM,0.431
same,relative viability,[12]; first compound 0.1265 µM,0.445
same,relative viability,[12]; first compound 0.4 µM,0.569
same,relative viability,[12]; first compound 4 µM,0.612
same,relative viability,[13]; first compound 0.04 µM,0.744
same,relative viability,[13]; first compound 0.1265 µM,0.743
same,relative viability,[13]; first compound 0.4 µM,0.677
same,relative viability,[13]; first compound 4 µM,0.669
same,relative viability,[14]; first compound 0.04 µM,0.197
same,relative viability,[14]; first compound 0.1265 µM,0.227
same,relative viability,[14]; first compound 0.4 µM,0.225
same,relative viability,[14]; first compound 4 µM,0.224
same,relative viability,[15]; first compound 0.04 µM,1.14
same,relative viability,[15]; first compound 0.1265 µM,1
same,relative viability,[15]; first compound 0.4 µM,0.99
same,relative viability,[15]; first compound 4 µM,0.8
same,relative viability,[16]; first compound 0.04 µM,0.496
same,relative viability,[16]; first compound 0.1265 µM,0.534
same,relative viability,[16]; first compound 0.4 µM,0.623
same,relative viability,[16]; first compound 4 µM,0.65
same,relative viability,[17]; first compound 0.04 µM,0.249
same,relative viability,[17]; first compound 0.1265 µM,0.222
same,relative viability,[17]; first compound 0.4 µM,0.29
same,relative viability,[17]; first compound 4 µM,0.328
same,relative viability,[18]; first compound 0.04 µM,0.815
same,relative viability,[18]; first compound 0.1265 µM,0.928
same,relative viability,[18]; first compound 0.4 µM,0.859
same,relative viability,[18]; first compound 4 µM,0.851
same,relative viability,[19]; first compound 0.04 µM,0.303
same,relative viability,[19]; first compound 0.1265 µM,0.897
same,relative viability,[19]; first compound 0.4 µM,0.947
same,relative viability,[19]; first compound 4 µM,1.48
same,relative viability,[20]; first compound 0.04 µM,0.594
same,relative viability,[20]; first compound 0.1265 µM,0.522
same,relative viability,[20]; first compound 0.4 µM,0.454
same,relative viability,[20]; first compound 4 µM,0.717
same,relative viability,[21]; first compound 0.04 µM,0.235
same,relative viability,[21]; first compound 0.1265 µM,0.253
same,relative viability,[21]; first compound 0.4 µM,0.192
same,relative viability,[21]; first compound 4 µM,0.167
same,relative viability,[22]; first compound 0.04 µM,0.423
same,relative viability,[22]; first compound 0.1265 µM,0.396
same,relative viability,[22]; first compound 0.4 µM,0.42
same,relative viability,[22]; first compound 4 µM,0.436
same,relative viability,[23]; first compound 0.04 µM,0.648
same,relative viability,[23]; first compound 0.1265 µM,0.591
same,relative viability,[23]; first compound 0.4 µM,0.625
same,relative viability,[23]; first compound 4 µM,0.608

# Reference: the supplement of paper PMC10307832
